According to a melting point compilation (Tetko et al.; mined from patent text by program, amines drawn as free bases though some values may be those of a salt):

melting point [°C] | SMILES
174 | c1cc2cc3cnccc3cc2cn1
126 to 127 | COC(=O)c1ccc2scc(Cl)c2n1
85 to 86 | OCc1nn(Cc2ccccc2)c2ccccc12
63.3 to 64.4 | OCc1ccnc(Br)c1
190 to 192 | COc1cc2ccc3nc4ccccc4cc3c2cc1OC
50 to 55 | O=C(CC1(Sc2ccc(Oc3ccc(Cl)cc3)cc2)CCOCC1)NO
75.5 to 76.5 | CC(=O)c1ccc(F)c(N(C)C(C)=O)c1
78 to 80 | COc1cc(C(=O)c2ccccc2)cc([N+](=O)[O-])c1OC
95.5 to 98 | CCCN1CCN(c2nc3ccc(N=CN(C)C)cc3nc2N2CCN(CCC)CC2)CC1
144 | CCOc1cc(C(F)(F)F)sc1C(=O)O
81 to 84 | COC(=O)c1oc2ccc(OC)cc2c1OCc1ccccc1
138 to 140 | O=C(Nc1cccc([N+](=O)[O-])c1)C(=O)N1CCC(Cc2ccccc2)CC1
85 to 87 | C=C(C)COc1ccc(C(=O)C=Cc2ccc(N(C)C)cc2)c(O)c1
147 to 148 | CC(C)n1nc(-c2cc(N)cnc2-c2ccccc2)ccc1=O
190 to 192 | CCC(Nc1ccncc1)c1ccccc1 (stereo not given)
221 to 226 | NC(=O)NN=Cc1ccc(OCCc2coc(-c3ccccc3)n2)cc1
116 to 117 | CCOC(=O)c1cnc(N(Cc2cc(Br)ccc2OCc2ccccc2)C(=O)OC(C)(C)C)cn1
149 to 150 | COc1ccc(C2CCN(C(N)=O)CC2)cc1OC1CCCC1

melting point [°C] | SMILES
91 to 93 | CCCCOC(=O)c1cc([N+](=O)[O-])ccc1N
116 to 117 | CC(C)COc1c(-c2ccc(S(C)(=O)=O)cc2)cnn(-c2ccc(F)c(F)c2)c1=O
29 to 31 | COC(=O)c1c(C(F)(F)F)nc(C(F)(F)F)c(C(=O)OC)c1[Si](C)(C)C
89 to 94 | Cc1cc(Cn2nnn(-c3cccc(C(F)(F)F)c3)c2=O)ccc1N
149 to 152 | OCCSc1c(Cl)c(Cl)c(SCCO)c(Cl)c1Cl
106 to 107 | C=C(C)C(=O)Oc1ccc(S(=O)(=O)NC)cc1
82 to 83 | C=C(Cc1ccccc1C)C(=O)O
227 to 230 | CC12CCC3C(CC=C4NC(=O)CCC43C)C1CC=C2I (stereo not given)
161 to 163 | CC(C)Oc1nccc(-c2c(-c3ccc(F)cc3)ncn2C2CCC(=O)CC2)n1
50 to 53 | C=CCCCCCCOc1ccc(CCC(NC(C)=O)(C(=O)OCC)C(=O)OCC)cc1
239 to 241 | CCOC(=O)c1cc2n(C)c3ccccc3c(=O)n2n1
124 to 125 | CCOC(=O)CCNc1ncccc1NC(=O)c1ccc(Cl)cc1
165 to 167 | CN(CCN(CCC12CC3CC(CC(C3)C1)C2)C(=O)NCCCc1ccncc1)S(C)(=O)=O
322 | O=C1NC(=O)c2cc(C(c3ccc4c(c3)C(=O)NC4=O)(C(F)(F)F)C(F)(F)F)ccc21
112 to 114 | O=S(=O)(c1ccccc1)n1cc(I)c2c(OC3CCCCC3)ccnc21
192 to 195 | CONC(=O)N1N=C(c2ccc([N+](=O)[O-])c(C)c2)c2cc3c(cc2CC1C)OCO3 (stereo not given)
194 to 195 | CC(C)=NOCc1nc2c(N)nc3ccccc3c2n1CC(C)C
82 to 84 | O=C1C(=O)c2ccccc2C2=C1SCC1(CCN(CC(O)Cc3ccccc3)CC1)O2 (stereo not given)

More lines, now with the values behind:

SMILES | melting point [°C]
CC(=O)NC[C@H]1CN(c2ccc(N3CCC(n4cc(C(C)=O)nn4)CC3)c(F)c2)C(=O)O1 | 220 to 222
Nc1cc(N)cc(O)c1 | 168 to 170
CCOC(=O)c1cc2c([nH]1)CCCC2 | 70 to 72
COc1ccccc1CN[C@H]1CCCN(CCCCCc2ccccc2)[C@H]1c1ccccc1 (relative stereo) | 109
CON=C(N)C(F)(F)C(O)(Cn1cncn1)c1ccc(F)cc1F (stereo not given) | 114
COC(=O)C1CN(C)CCC1c1ccc(Cl)c(Cl)c1 (stereo not given) | 70 to 75
CCNc1c(C(=O)OCC)c(C)nc2nccnc12 | 72 to 74
Cc1nc(C)c(C(=O)Nc2ccc(-n3nc(C(F)(F)F)cc3C3CC3)cc2)s1 | 117 to 122
c1ccc(CN(Cc2ccccc2)c2c(-c3ccccc3)sc3ccccc23)cc1 | 92 to 93
Clc1ncnc2c1ncn2CCCN1CCC(COc2ccccc2)CC1 | 95 to 96
Cc1nc(-c2ccc(Cl)cc2)sc1C(N)=O | 236 to 237
CC(=O)c1ccc2c(c1)OCC(C(=O)O)O2 (stereo not given) | 159 to 162
CCC1(CC)OC(c2ccc(S(C)(=O)=O)cc2)=C(c2ccccc2)C1=O | 139 to 140
CC1(CN2CCN(Cc3ccc(C(F)(F)F)cc3)C(=O)C2)Cn2cc([N+](=O)[O-])nc2O1 (stereo not given) | 88 to 93
CC(C)Cc1ccc2c(c1)C(CO)c1cc(CC(C)C)ccc1-2 | 105
CS(=O)(=O)c1c(C(=O)c2cnoc2C2CC2)ccc2c1OC(F)(F)O2 | 162 to 163
Cc1oc(-c2ccco2)nc1COc1ccc(COc2nn(C)cc2CC(=O)O)cn1 | 155 to 156
O=C1NCc2c1cc1ccc3c(c1c2-c1ccncc1)OCO3 | 316 to 319
CCOC(=O)C1C=Nc2c(cccc2[N+](=O)[O-])C1=O (stereo not given) | 241 to 243
CC1(C)OC(=O)[C@@H](CC=O)O1 | 37 to 38
CC(C)(C)OC(=O)NNC(=O)N1CCN(NC(=O)OCc2ccccc2)C1=O | 195 to 198
Cc1ccc(NC(=O)N2C(=S)C3(CCCCC3)NC23CCCCC3)cc1 | 127 to 129

SMILES | melting point [°C]
CCOC(=O)C1=C(O)c2cc3ccccc3n2CCC1 | 74 to 81
CCCCCCC1c2sccc2CCN1CCNC(=O)c1ccc(NS(C)(=O)=O)cc1 (stereo not given) | 132 to 134
NC(=O)Oc1ccccc1-c1nc2ccc(OCc3c(F)cccc3F)cc2s1 | 216
Cc1cccc(C)c1NC(=S)C1(C)CCc2c(C)c(O)c(C)c(C)c2O1 (stereo not given) | 122 to 123
NNC(=O)c1sc2cnccc2c1Oc1ccc(C(F)(F)F)cc1 | 146 to 147
N#Cc1cnc(N[C@@H]2CCCc3ccccc32)nc1N | 168
Cc1ccc2nc(-c3ccc(N)c(I)c3)sc2c1 | 176 to 178
CCOC(=O)CC(=O)Nc1cccc(F)c1CO | 91
CCOC(=O)c1cn(-c2nc(NCc3ccc(OC)cc3)c(F)cc2F)c2c(F)c(F)c(F)c(NCc3ccccc3)c2c1=O | 146 to 148
CC1(C)C(=O)Nc2cc3[nH]c(-c4ccnnc4)nc3cc21 | > 360
COc1ccc(-c2ccc(Cl)cc2C#N)cc1C=O | 187 to 189
C=CCN1C2CCC1C1CCC2N1C(c1ccc(C(=O)N(C)C)cc1)c1cccc(OC)c1 (stereo not given) | 100 to 103
COc1ccc(Br)cc1C(=O)C(Br)C(Br)c1cccc(Br)c1 (stereo not given) | 124 to 126
Oc1ccc(-n2nc3ccc(Cl)cc3n2)c(O)c1 | 188 to 189
Cc1c2c(cn1C)NC(=O)C(OC(=O)CCCN1C(=O)c3ccccc3C1=O)N=C2c1ccccc1 (stereo not given) | 210 to 212
CON=C(C(=O)O)c1csnn1 | 110 to 113
Cc1cc2nc(Cl)c(Cl)nc2c([N+](=O)[O-])c1C | 133 to 134
NC1(NC(=O)C(F)(F)F)CN(c2c(F)cc3c(=O)c(C(=O)O)cn(-c4ccc(F)cc4F)c3c2F)C1 | 190 to 196
Cc1nc(-c2ccc(OCc3cccnc3)cc2)no1 | 55 to 56
CCCc1sc2nc(CN(CC)CC)c(C(=O)OCC)c(-c3ccc(Cl)cc3)c2c1C | 82 to 83
CC12CCC3c4ccccc4CCC3C1CCC2NCc1ccccc1 (stereo not given) | 71 to 74
CCCCCCOC(=O)NC(=N)c1ccc(NCc2nc3cc(C(=O)N(CCC(=O)OCC)c4ccccn4)ccc3n2C)cc1 | 126 to 128

SMILES | melting point [°C]
Cc1cccc2c(Nc3cc(CO)cc(NC(=O)Oc4ccc(N(CCCl)CCCl)cc4)c3)c3ccccc3nc12 | 229 to 231
CSc1ncncc1C1c2cc(NS(=O)(=O)c3ccccc3)ccc2CC1(C)C (stereo not given) | 174 to 176
OCC1OC(n2cnc3c(Nc4ccccc4)ccnc32)C(O)C1O (stereo not given) | 189
COc1cccc(CCS(=O)c2nc3cnccc3[nH]2)c1 (stereo not given) | 125 to 128
CCc1nn(CCNS(=O)(=O)c2cn(C)cn2)c(CC)c1Cc1cc(Cl)cc(Cl)c1 | 172 to 174
CCOC(=O)c1ccc(SCC)c(-c2cc(C)no2)c1C | 39 to 40
Cc1ccc(C)c(-c2cn(C)cc(-c3cccc(C(F)(F)F)c3)c2=O)c1 | 165 to 167
CCc1cc2c(s1)-n1c(C3CCCCC3)nnc1C(NC(=O)Nc1ccc(OC)cc1)N=C2c1ccccc1Cl (stereo not given) | 268 to 269
Cc1cc(C)nc(C(=O)n2cc(CC(=O)O)c3ccc(Cl)cc32)c1 | 219 to 220
Cc1ccc(S(=O)(=O)NC(=O)OCCc2ccc(-n3c(CCCc4cccnc4)nc4cc(C(F)(F)F)c(Cl)cc43)cc2)cc1 | 90 to 95
Fc1cc(C(Cl)(Cl)Cl)c(Cl)c(C(Cl)Cl)c1Cl | 74 to 76
O=S(=O)(Nc1ccc(OCc2ccc3ccccc3n2)cc1)c1cccc(C(F)(F)F)c1 | 81 to 83
O=C1N[C@@H](C(=O)O)CCCCCC[C@@H]1CS (relative stereo) | 180 to 185
COc1ccc(N(C(=O)c2c3ccccc3nc3ccccc23)S(=O)(=O)c2ccc(CCC(=O)ON3C(=O)CCC3=O)cc2)c(OC)c1 | 105
O=c1cc(-c2ccccc2)nc2ccn(-c3ccccc3)n12 | 194 to 200
Nc1ncnc2c1ncn2Cc1oc2ccc(F)cc2c(=O)c1-c1cccc(F)c1 | 180 to 183
O=C(CCBr)NCC(=O)c1ccccc1 | 114
CCOC(=O)C1=C(NC(=O)Nc2cc(C(=O)OC(C)C)c(Br)cc2Br)CCC1 | 157 to 158
Cc1cn(S(C)(=O)=O)c2c1C(=O)CC(c1ccccc1F)C2 (stereo not given) | 130 to 134
CNC(=O)c1ccccc1Nc1nc(Nc2ccc3c(c2)CCCC(=O)N3)ncc1Cl | 283
